According to the supplement of paper PMC10307832:

What was measured:
Assay in all cases: relative viability (nuclei count vs DMSO), 5 days (fraction); higher = more cells survive
[1] = test system: NCI-H1792
Method in brief: (§1)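 Lung cancer cell lines in 1536-well plates were dosed by pin tool the day after seeding, either with one drug alone or with a fixed anchor-drug dose plus five library-drug doses (not always all listed) in √10 steps. After 5 days, cells were fixed and their nuclei stained in one step (final 0.05% Triton X-100, 1% formaldehyde, 1 ug/ml Hoechst), then counted on 4× images. Relative viability is the nuclei count in treated wells divided by that in vehicle wells. Values are medians of duplicate plates.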

[2] = test system: CAL-12T
Method in brief: as §1

[3] = test system: NCI-H2087
Method in brief: as §1

[4] = test system: NCI-H2023
Method in brief: as §1

[5] = test system: NCI-H1915
Method in brief: as §1

[6] = test system: NCI-H460
Method in brief: as §1

[7] = test system: NCI-H661
Method in brief: as §1

[8] = test system: NCI-H650
Method in brief: as §1

[9] = test system: NCI-H1650
Method in brief: as §1

[10] = test system: LC-2-ad
Method in brief: as §1

[11] = test system: H3255
Method in brief: as §1

COc1cc(N2CCC(C(N)=O)CC2)ccc1Nc1nc(N)c(Cl)c(Nc2ccccc2S(=O)(=O)C(C)C)n1 [HG-5-88-01] + Nc1nc2[nH]cc(CCc3ccc(C(=O)N[C@@H](CCC(=O)O)C(=O)O)cc3)c2c(=O)[nH]1 [Pemetrexed] (partner 0.2 µM)
relative viability ([1]; first compound 0.04 µM): 0.769 | relative viability ([1]; first compound 0.1265 µM): 0.825 | relative viability ([1]; first compound 0.4 µM): 0.751 | relative viability ([1]; first compound 1.265 µM): 0.832 | relative viability ([1]; first compound 4 µM): 0.76 | relative viability ([2]; first compound 0.04 µM): 1.25 | relative viability ([2]; first compound 0.1265 µM): 1.14 | relative viability ([2]; first compound 0.4 µM): 1.24 | relative viability ([2]; first compound 1.265 µM): 0.995 | relative viability ([2]; first compound 4 µM): 0.754 | relative viability ([3]; first compound 0.04 µM): 0.664 | relative viability ([3]; first compound 0.1265 µM): 0.689 | relative viability ([3]; first compound 0.4 µM): 0.67 | relative viability ([3]; first compound 1.265 µM): 0.651 | relative viability ([3]; first compound 4 µM): 0.715 | relative viability ([4]; first compound 0.04 µM): 0.231 | relative viability ([4]; first compound 0.1265 µM): 0.23 | relative viability ([4]; first compound 0.4 µM): 0.175 | relative viability ([4]; first compound 1.265 µM): 0.165 | relative viability ([4]; first compound 4 µM): 0.171 | relative viability ([5]; first compound 0.04 µM): 0.471 | relative viability ([5]; first compound 0.1265 µM): 0.5 | relative viability ([5]; first compound 0.4 µM): 0.352 | relative viability ([5]; first compound 1.265 µM): 0.541 | relative viability ([5]; first compound 4 µM): 0.441 | relative viability ([6]; first compound 0.04 µM): 0.0629 | relative viability ([6]; first compound 0.1265 µM): 0.0611 | relative viability ([6]; first compound 0.4 µM): 0.054 | relative viability ([6]; first compound 1.265 µM): 0.0633 | relative viability ([6]; first compound 4 µM): 0.0701 | relative viability ([7]; first compound 0.04 µM): 0.909 | relative viability ([7]; first compound 0.1265 µM): 0.931 | relative viability ([7]; first compound 0.4 µM): 0.883 | relative viability ([7]; first compound 1.265 µM): 0.974 | relative viability ([7]; first compound 4 µM): 0.965 | relative viability ([8]; first compound 0.04 µM): 0.985 | relative viability ([8]; first compound 0.1265 µM): 0.91 | relative viability ([8]; first compound 0.4 µM): 0.844 | relative viability ([8]; first compound 1.265 µM): 0.896 | relative viability ([8]; first compound 4 µM): 0.476 | relative viability ([9]; first compound 0.04 µM): 0.352 | relative viability ([9]; first compound 0.1265 µM): 0.36 | relative viability ([9]; first compound 0.4 µM): 0.346 | relative viability ([9]; first compound 1.265 µM): 0.343 | relative viability ([9]; first compound 4 µM): 0.354 | relative viability ([10]; first compound 0.04 µM): 0.257 | relative viability ([10]; first compound 0.1265 µM): 0.257 | relative viability ([10]; first compound 0.4 µM): 0.259 | relative viability ([10]; first compound 1.265 µM): 0.275 | relative viability ([10]; first compound 4 µM): 0.267 | relative viability ([11]; first compound 0.04 µM): 0.578 | relative viability ([11]; first compound 0.1265 µM): 0.571 | relative viability ([11]; first compound 0.4 µM): 0.54 | relative viability ([11]; first compound 4 µM): 0.501
